Assay: Urinary excretion study in rats after oral NS, SF or CNS (LC–MS/MS)
Assay type: in vivo
Conditions: for concentration at 2 h / concentration at 4 h / concentration at 8 h / concentration at 12 h / concentration at 24 h / concentration at 36 h / concentration at 48 h / concentration at 72 h / concentration at 96 h / concentration at 120 h / concentration at 6 h: male, Sprague Dawley, rat, urine, oral; for Accumulative excretion amount / Accumulative excretion percentage / Excretion amount: rat urine
In short: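 Fasted male rats (n = 6/group) received NS 60 mg/kg, SF 50 mg/kg, or both, by oral gavage. Urine was collected over 0–120 h in metabolic cages and analysed by negative-ESI MRM LC–MS/MS. Cumulative excretion is expressed as a percentage of the ingested dose.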

- concentration at 2 h (60 mg/kg, oral NS 60 mg/kg, 2 h): 3360 ± 7020 ng/mL
- concentration at 4 h (60 mg/kg, oral NS 60 mg/kg, 4 h): 1680 ± 1800 ng/mL
- concentration at 8 h (60 mg/kg, oral NS 60 mg/kg, 8 h): 1140 ± 1230 ng/mL
- concentration at 12 h (60 mg/kg, oral NS 60 mg/kg, 12 h): 727 ± 171 ng/mL
- concentration at 24 h (60 mg/kg, oral NS 60 mg/kg, 24 h): 135 ± 209 ng/mL
- concentration at 36 h (60 mg/kg, oral NS 60 mg/kg, 36 h): 115 ± 151 ng/mL
- concentration at 48 h (60 mg/kg, oral NS 60 mg/kg, 48 h): 100 ± 171 ng/mL
- concentration at 72 h (60 mg/kg, oral NS 60 mg/kg, 72 h): 178 ± 382 ng/mL
- concentration at 96 h (60 mg/kg, oral NS 60 mg/kg, 96 h): 85 ± 159 ng/mL
- concentration at 120 h (60 mg/kg, oral NS 60 mg/kg, 120 h): 59 ± 105 ng/mL
- concentration at 2 h (oral CNS 110 mg/kg, 2 h): 1510 ± 1440 ng/mL
- concentration at 4 h (oral CNS 110 mg/kg, 4 h): 1690 ± 2340 ng/mL
- concentration at 6 h (oral CNS 110 mg/kg, 6 h): 544 ± 216 ng/mL
- concentration at 8 h (oral CNS 110 mg/kg, 8 h): 835 ± 697 ng/mL
- concentration at 12 h (oral CNS 110 mg/kg, 12 h): 789 ± 937 ng/mL
- concentration at 24 h (oral CNS 110 mg/kg, 24 h): 2350 ± 5830 ng/mL
- concentration at 36 h (oral CNS 110 mg/kg, 36 h): 228 ± 361 ng/mL
- concentration at 48 h (oral CNS 110 mg/kg, 48 h): 65 ± 82 ng/mL
- concentration at 72 h (oral CNS 110 mg/kg, 72 h): 93 ± 156 ng/mL
- concentration at 96 h (oral CNS 110 mg/kg, 96 h): 46 ± 53 ng/mL
- concentration at 120 h (oral CNS 110 mg/kg, 120 h): 80 ± 174 ng/mL
- concentration at 6 h (oral NS 60 mg/kg, 6 h): 1440 ± 1460 ng/mL
- Accumulative excretion amount (oral CNS 110 mg/kg, 2 h): 1.881 ± 1.001 µg
- Accumulative excretion percentage (oral CNS 110 mg/kg, 2 h): 0.066±0.032%
- Excretion amount (oral CNS 110 mg/kg, 2 h): 1.881 ± 1.001 µg
- Accumulative excretion amount (oral CNS 110 mg/kg, 4 h): 3.382 ± 2.188 µg
- Accumulative excretion percentage (oral CNS 110 mg/kg, 4 h): 0.111±0.072%
- Excretion amount (oral CNS 110 mg/kg, 4 h): 2.002 ± 1.609 µg
- Accumulative excretion amount (oral CNS 110 mg/kg, 6 h): 3.994 ± 2.061 µg
- Accumulative excretion percentage (oral CNS 110 mg/kg, 6 h): 0.132±0.073%
- Excretion amount (oral CNS 110 mg/kg, 6 h): 0.816 ± 0.264 µg
- Accumulative excretion amount (oral CNS 110 mg/kg, 8 h): 4.725 ± 2.486 µg
- Accumulative excretion percentage (oral CNS 110 mg/kg, 8 h): 0.155±0.084%
- Excretion amount (oral CNS 110 mg/kg, 8 h): 1.169 ± 0.913 µg
- Accumulative excretion amount (oral CNS 110 mg/kg, 12 h): 5.430 ± 2.374 µg
- Accumulative excretion percentage (oral CNS 110 mg/kg, 12 h): 0.188±0.080%
- Excretion amount (oral CNS 110 mg/kg, 12 h): 0.805 ± 0.300 µg
- Accumulative excretion amount (oral CNS 110 mg/kg, 24 h): 8.052 ± 5.572 µg
- Accumulative excretion percentage (oral CNS 110 mg/kg, 24 h): 0.263±0.182%
- Excretion amount (oral CNS 110 mg/kg, 24 h): 2.622 ± 5.710 µg
- Accumulative excretion amount (oral CNS 110 mg/kg, 36 h): 8.388 ± 5.927 µg
- Accumulative excretion percentage (oral CNS 110 mg/kg, 36 h): 0.274±0.195%
- Excretion amount (oral CNS 110 mg/kg, 36 h): 0.336 ± 0.421 µg
- Accumulative excretion amount (oral CNS 110 mg/kg, 48 h): 8.689 ± 6.056 µg
- Accumulative excretion percentage (oral CNS 110 mg/kg, 48 h): 0.285±0.202%
- Excretion amount (oral CNS 110 mg/kg, 48 h): 0.301 ± 0.361 µg
- Accumulative excretion amount (oral CNS 110 mg/kg, 72 h): 8.87 ± 6.051 µg
- Accumulative excretion percentage (oral CNS 110 mg/kg, 72 h): 0.293±0.206%
- Excretion amount (oral CNS 110 mg/kg, 72 h): 0.185 ± 0.312 µg
- Accumulative excretion amount (oral CNS 110 mg/kg, 96 h): 8.966 ± 6.090 µg
- Accumulative excretion percentage (oral CNS 110 mg/kg, 96 h): 0.292±0.204%
- Excretion amount (oral CNS 110 mg/kg, 96 h): 0.091 ± 0.106 µg
- Accumulative excretion amount (oral CNS 110 mg/kg, 120 h): 9.027 ± 6.117 µg
- Accumulative excretion percentage (oral CNS 110 mg/kg, 120 h): 0.292±0.206%
- Excretion amount (oral CNS 110 mg/kg, 120 h): 0.061 ± 0.081 µg
- Accumulative excretion amount (oral NS 60 mg/kg, 2 h): 4.985 ± 1.411 µg
- Accumulative excretion percentage (oral NS 60 mg/kg, 2 h): 0.142±0.045%
- Excretion amount (oral NS 60 mg/kg, 2 h): 4.985 ± 1.411 µg
- Accumulative excretion amount (oral NS 60 mg/kg, 4 h): 6.610 ± 2.052 µg
- Accumulative excretion percentage (oral NS 60 mg/kg, 4 h): 0.193±0.061%
- Excretion amount (oral NS 60 mg/kg, 4 h): 2.844 ± 0.973 µg
- Accumulative excretion amount (oral NS 60 mg/kg, 6 h): 9.709 ± 2.893 µg
- Accumulative excretion percentage (oral NS 60 mg/kg, 6 h): 0.285±0.086%
- Excretion amount (oral NS 60 mg/kg, 6 h): 3.616 ± 2.575 µg
- Accumulative excretion amount (oral NS 60 mg/kg, 8 h): 11.931 ± 4.568 µg
- Accumulative excretion percentage (oral NS 60 mg/kg, 8 h): 0.348±0.137%
- Excretion amount (oral NS 60 mg/kg, 8 h): 3.890 ± 2.477 µg
- Accumulative excretion amount (oral NS 60 mg/kg, 12 h): 15.061 ± 7.022 µg
- Accumulative excretion percentage (oral NS 60 mg/kg, 12 h): 0.439±0.200%
- Excretion amount (oral NS 60 mg/kg, 12 h): 3.130 ± 2.715 µg
- Accumulative excretion amount (oral NS 60 mg/kg, 24 h): 15.697 ± 7.182 µg
- Accumulative excretion percentage (oral NS 60 mg/kg, 24 h): 0.451±0.202%
- Excretion amount (oral NS 60 mg/kg, 24 h): 0.636 ± 0.590 µg
- Accumulative excretion amount (oral NS 60 mg/kg, 36 h): 16.042 ± 7.062 µg
- Accumulative excretion percentage (oral NS 60 mg/kg, 36 h): 0.463±0.204%
- Excretion amount (oral NS 60 mg/kg, 36 h): 0.402 ± 0.338 µg
- Accumulative excretion percentage (oral NS 60 mg/kg, 48 h): 0.465±0.204%
- Excretion amount (oral NS 60 mg/kg, 48 h): 0.285 ± 0.276 µg
- Accumulative excretion amount (oral NS 60 mg/kg, 72 h): 16.417 ± 7.147 µg
- Accumulative excretion percentage (oral NS 60 mg/kg, 72 h): 0.476±0.208%
- Excretion amount (oral NS 60 mg/kg, 72 h): 0.091 ± 0.014 µg
- Excretion amount (oral NS 60 mg/kg, 96 h): 0.062 ± 0.110 µg
- Excretion amount (oral NS 60 mg/kg, 120 h): 0.062 ± 0.148 µg
SMILES: CC(C)=CCC[C@](C)(O[C@@H]1O[C@H](CO)[C@@H](O)[C@H](O)[C@H]1O)[C@H]1CC[C@]2(C)[C@@H]1[C@H](O)C[C@@H]1[C@@]3(C)CC[C@H](O)C(C)(C)[C@@H]3[C@@H](O[C@@H]3O[C@H](CO)[C@@H](O)[C@H](O)[C@H]3O)C[C@]12C [ginsenoside Rg1]

From article PMC6321168, “Comparative Study on Excretive Characterization of Main Components in Herb Pair Notoginseng-Safflower and Single Herbs by LC–MS/MS” (Pharmaceutics, 2018)
